# Publication PMC8144573, “Distinct EH domains of the endocytic TPLATE complex confer lipid and protein binding” (Nature Communications, 2021)
# What was measured:
# EH1.2 = assay: Peptidome profiling by mass spectrometry, EH1.2; format: binding, Arabidopsis thaliana
# Experimental: (§1) Arabidopsis (Col-0) was grown vertically on 1/2 MS media for 7 days on a nylon mesh, harvested and flash-frozen in liquid nitrogen. Frozen seedlings (3 g/experiment) were ground using mortar and pestle. Proteins were extracted and denatured in 50 mM NaHCO3, 8 M Urea and sonicated three times for 1 min. Protein extracts were rotated for 30 min at room temperature after which the extract was subsequently centrifuged twice at 20,000 × g for 20 min. DTT was added to the supernatant, was added to a final concentration of 5 mM and incubated at 55 °C for 30 min. Proteins were alkylated by the addition of 100 mM iodoacetamide and incubated for 15 min in the dark after which the mix was subsequently diluted with 50 mM NaHCO3 to a final concentration of 2 M urea. Trypsin was added in a ratio of 1:75, protein:trypsin (Sequencing Grade Modified Trypsin, V5117, Promega) and incubated overnight at 37 °C on a rotating wheel.
# (§2) Trypsin was removed using Sep-Pak Vac 3cc columns (500 mg, WAT036815, Waters). The extract was acidified using 1% TFA for 15 min on ice and cleared by centrifugation at 1780 × g for 15 min at room temperature. The cleared extract was split into four and applied on an equilibrated Sep-Pak columns (Waters, WAT036815, Lot # 010437235B). The column was pre-wet using 5 ml of 100% MeCN followed by sequential washing with 1 ml, 3 ml, and 6 ml of 0.1% TFA. After application of the extract, the column was washed sequentially with 1 ml, 5 ml, and 6 ml of 0.1% TFA followed by a 2 ml wash with 0.1% TFA, 5% acetonitrile. The peptides were eluted using three times 2 ml 0.1% TFA, 40% acetonitrile. The eluate was lyophilized for two days to remove TFA. 200 µg EH domain or his-GFP were coupled, in triplicate, during one hour to 25 µl Ni Sepharose 6 Fast Flow beads (GE Healthcare, 17-5318-01). Unbound protein was removed by three washing steps of 1 ml each. The lyophilized peptides were solubilized in 20 mM HEPES, 150 mM NaCl buffer, 0.2 mM CaCl2, divided and added to the coupled beads. The peptidome was incubated with the proteins for 4 h after which the beads were washed three times with 1 ml of the binding buffer. Peptides were eluted by the addition of 80 µl 20 mM HEPES pH 8, 8 M Urea. The supernatant was removed from the beads and desalted with Monospin C18 columns (Agilent Technologies, A57003100) after which they were freeze dried.
# (§3) Peptides were redissolved in 20 µl loading solvent A (0.1% TFA in water/acetonitrile (98:2, v/v)) of which 5 µl was injected for LC-MS/MS analysis on an Ultimate 3000 RSLC nano LC (Thermo Fisher Scientific, Bremen, Germany) in-line connected to a Q Exactive mass spectrometer (Thermo Fisher Scientific). The peptides were first loaded on a trapping column made in-house (100 μm internal diameter (I.D.) × 20 mm, 5 μm beads C18 Reprosil-HD, Dr. Maisch, Ammerbuch-Entringen, Germany) and after flushing from the trapping column the peptides were separated on a 50 cm µPAC™ column with C18-endcapped functionality (Pharmafluidics, Belgium) kept at a constant temperature of 35 °C. Peptides were eluted by a linear gradient from 98% solvent A′ (0.1% formic acid in water) to 55% solvent B′ (0.1% formic acid in water/acetonitrile, 20/80 (v/v)) in 30 min at a flow rate of 300 nl/min, followed by a 5 min wash reaching 99% solvent B’. The mass spectrometer was operated in data-dependent, positive ionization mode, automatically switching between MS and MS/MS acquisition for the 5 most abundant peaks in a given MS spectrum. The source voltage was 2.2 kV, and the capillary temperature was 250 °C. […]
# EH1.1 = assay: Peptidome profiling by mass spectrometry, EH1.1; format: binding, Arabidopsis thaliana; parameters: scale not given here
# Experimental: as §1, §2, §3
# EH1.2+EH1.1 = assay: Peptidome profiling by mass spectrometry, EH1.2+EH1.1 vs GFP; format: binding, Arabidopsis thaliana
# Description: Supplement 41467_2021_23314_MOESM6_ESM.xlsx, sheet "Supplementary Data 3" | column: EH1.2+EH1.1 vs GFP
# SCAMP5 = assay: ES9 treatment, SCAMP5 localization; format: cell-based, Arabidopsis; conditions: 10 µM ES9, 5 min pretreatment then 30 min co-treatment with 2 µM FM4-64
# Experimental: For ES9 treatment plants were pretreated for 5 min with 10 µM ES9, a generous gift of the lab of Jenny Russinova (PSB, VIB/Ugent, BE), in 1/2 MS media followed by 30 min co-treatment of ES9 with 2 µM FM4-64.
# [1] = target: First EH domain of AtEH1/Pan1 (EH1.1), amino acids 1-107, His-tagged (Arabidopsis thaliana); assay: BLI; Octet RED96; His-tagged EH domain on Ni-NTA biosensors, covalently coupled with EDC/NHS; peptide as analyte in increasing concentrations; 20 mM HEPES pH 7.4, 150 mM NaCl, 2 mM CaCl2; 25 °C; steady state, one-site total binding model
# Sequence of First EH domain of AtEH1/Pan1 (EH1.1), amino acids 1-107, His-tagged (Arabidopsis thaliana) (main, as listed by the source): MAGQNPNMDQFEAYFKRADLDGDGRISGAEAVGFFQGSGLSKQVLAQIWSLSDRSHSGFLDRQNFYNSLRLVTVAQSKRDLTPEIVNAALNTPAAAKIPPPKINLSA
# [2] = target: 15N-labeled EH1.1 of AtEH1/Pan1 (amino acids 1-107) for NMR titration (Arabidopsis thaliana); assay: NMR titration; 1H,15N HSQC of 15N-labeled EH domain with successive addition of unlabeled peptide up to 1:4 excess; 20 mM MES 6.5, 150 mM NaCl, 2 mM CaCl2; chemical shift perturbations fitted to a binding isotherm; apparent
# [3] = target: 15N-labeled EH1.2 of AtEH1/Pan1 (amino acids 346-449) for NMR titration (Arabidopsis thaliana); assay: as above
# Sequence of 15N-labeled EH1.2 of AtEH1/Pan1 (amino acids 346-449) for NMR titration (Arabidopsis thaliana) (main, as listed by the source): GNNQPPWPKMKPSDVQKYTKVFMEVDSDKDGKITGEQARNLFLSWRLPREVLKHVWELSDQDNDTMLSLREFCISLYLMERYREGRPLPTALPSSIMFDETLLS
Kd [1] [µM],Kd [2] [µM],Kd [3] [µM],Molecule,Difference (EH1.2; EH1.2 vs EH1.1+GFP),Difference (EH1.2; EH1.2 vs GFP),Difference (EH1.1; EH1.1 vs EH1.2),Difference (EH1.1; EH1.1 vs EH1.2+GFP),Difference (EH1.1; EH1.1 vs GFP),Difference (EH1.2+EH1.1),effect on SCAMP5 localization (in words) (SCAMP5)
,,,VFMEVDSDKDGKITGEQAR,15.5083,15.257,-15.7597,-8.131,-0.5027,7.377,
,,,O=[N+]([O-])c1ccc(NS(=O)(=O)c2ccc(Br)s2)cc1 [ES-9],,,,,,,caused SCAMP5 accumulation at the PM
,,,DLTPEIVNAALNTPAAAK,-3.31,3.059,9.679,11.2082,12.7377,7.898,
,,,YHASAIHVPGPEVAR,3.084,7.163,0.9954,4.577,8.159,7.661,
59,33,190,DPNPFDEDEEIVNPFSK (modifications not checked),,,,,,,
